Assay results reported in patent US10975063B2, “Compound, and production method thereof, and methods of treatment using the compound” (ABIVAX, priority 2009, dated 2021).

system: HIV-1; assay: Inhibition of HIV-1 production (p24 antigen) in infected peripheral blood mononuclear cells (PBMCs); type: cell-based, HIV-1 (AdaM) in PBMCs of healthy donors; conditions: Human immunodeficiency virus 1, PBMC; p24 production in HIV infected PBMCs; dose response curves
Experimental: Within this framework, the peripheral blood mononuclear cells (PBMCs) of healthy donors are isolated by centrifugation on a FICOLL gradient. The cells are then cultivated to a density of 2.5×10^6 cells/ml with RPMI medium supplemented with 1% inactivated human AB serum, then incubated at 37° C., 5% CO2 for an additional hour. The peripheral blood mononuclear cells are then recovered and cultivated for two days in RPMI medium supplemented with 10% fetal calf serum.
A standard experiment using 96 plates to test 30 molecules in triplicates including positive and negative controls, is performed as follows:
50 10^6 Ficoll purified PBMCs (10% DMSO 90% FCS) are washed with RPMI 10% FCS and resuspended in 25 ml of RPMI 10% FCS, glutamax containing 1000 U/ml of IL2 and 5 μg/ml PHA. The cells are then incubated for 3 days at 37° C. before to be washed with 50 ml PBS then with 50 ml RPMI 10% FCS. The cells are resuspended in 100 μl of RPMI 10% FCS containing 100 U/ml IL2 and seeded in 96 wells (1.5 10^5 cells/well). Viral infection is performed with 1 ng of AdaM/well. 100 μl of tested molecules at concentration of 10 μM are added to each well. Virus production is determined by p24 antigen immunosorbent assays after 3 and 6 days of infection (Kit Innogenetics). Typically PBMCs are prepared from several healthy donors (around 11 different donors). Dose response curves were then established with selected compounds to determine IC50.

Structure (SMILES)	IC50 [nM]
Clc1cccc2ccc(Nc3cnccn3)nc12 [Compound 112, 8-chloro-N-(pyrazin-2-yl)quinolin-2-amine]	0.1
COc1ccc(Nc2ccc3cccc(Cl)c3n2)cc1 [Compound 77, 8-chloro-N-(4-methoxyphenyl)quinolin-2-amine]	0.05
FC(F)(F)Oc1ccc(Nc2ccc3cccc(Cl)c3n2)cc1 [Compound 90, 8-chloro-N-[4-(trifluoromethoxy)phenyl]quinolin-2-amine]	0.1
Cc1ccnc(Nc2ccc3cccc(Cl)c3n2)c1 [Compound 6, (8-Chloro-quinolin-2-yl)-(4-methyl-pyridin-2-yl)-amine]	0.1
Fc1ccc(Nc2ccc3cccc(Cl)c3n2)nc1 [Compound 43, 8-chloro-N-(5-fluoropyridin-2-yl)quinolin-2-amine]	0.1
Cc1cc2ccccc2nc1Nc1ccc(OC(F)(F)F)cc1 [Compound 80, 3-methyl-N-[4-(trifluoromethoxy)phenyl]quinolin-2-amine]	1

same assay, conditions: tested molecules at 10 μM; p24 after 3 and 6 days of infection; number of donors with inhibition out of donors tested

Structure (SMILES)	Inhibition of p24 production in HIV infected PBMCs from different donors
Fc1cccc(Nc2ccc3cccc(Cl)c3n2)c1 [Compound 88, 8-chloro-N-(3-fluorophenyl)quinolin-2-amine]	4 out of 4 donnors
CN(C)c1ccc(Nc2ccc3cccc(Cl)c3n2)cc1 [Compound 75, 4-N-(8-chloroquinolin-2-yl)-1-N,1-N-dimethylbenzene-1,4-diamine]	6 out of 7 donnors
Cc1c(Cl)cnc(Nc2cnc3ccccc3n2)c1Cl [Compound 140, N-(3,5-dichloro-4-methylpyridin-2-yl)quinoxalin-2-amine]	4 out of 4 donnors
COc1ccc(Nc2nc3ccccc3cc2C)cc1 [Compound 79, N-(4-methoxyphenyl)-3-methylquinolin-2-amine]	7 out of 8 donnors
Cc1cc2ccccc2nc1Nc1ccc(N(C)C)cc1 [Compound 81, 1-N,1-N-dimethyl-4-N-(3-methylquinolin-2-yl)benzene-1,4-diamine]	4 out of 4 donnors
Cc1cc(Nc2ccc(OC(F)(F)F)cc2)nc2ccccc12 [Compound 78, 4-methyl-N-[4-(trifluoromethoxy)phenyl]quinolin-2-amine]	7 out of 8 donnors
Clc1cccc2ccc(Nc3cnccn3)nc12 [Compound 112, 8-chloro-N-(pyrazin-2-yl)quinolin-2-amine]	12 out of 13 donnors
Cc1cc2ccccc2nc1Nc1ccc(F)cn1 [Compound 73, N-(5-fluoropyridin-2-yl)-3-methylquinolin-2-amine]	4 out of 4 donnors
Cc1cccc(Nc2nc3ccccc3cc2C)n1 [Compound 46, 3-methyl-N-(6-methylpyridin-2-yl)quinolin-2-amine]	4 out of 4 donnors
COc1ccc(Nc2ccc3cccc(Cl)c3n2)cc1 [Compound 77, 8-chloro-N-(4-methoxyphenyl)quinolin-2-amine]	11 out of 13 donnors
FC(F)(F)Oc1ccc(Nc2ccc3cccc(Cl)c3n2)cc1 [Compound 90, 8-chloro-N-[4-(trifluoromethoxy)phenyl]quinolin-2-amine]	8 out of 10 donnors
Fc1ccc(Nc2ccc3cccc(Cl)c3n2)nc1 [Compound 43, 8-chloro-N-(5-fluoropyridin-2-yl)quinolin-2-amine]	8 out of 10 donnors
Cc1ccnc(Nc2ccc3c([N+](=O)[O-])cccc3n2)c1 [Compound 64, N-(4-methylpyridin-2-yl)-5-nitroquinolin-2-amine]	5 out of 5 donnors
Cc1ccnc(Nc2nc3ccccc3nc2C(F)(F)F)c1 [Compound 139, N-(4-methylpyridin-2-yl)-3-(trifluoromethyl)quinoxalin-2-amine]	4 out of 4 donnors
CCc1cccc(Nc2ccc3cccc(Cl)c3n2)n1 [Compound 50, 8-chloro-N-(6-ethylpyridin-2-yl)quinolin-2-amine]	4 out of 4 donnors
Oc1cccnc1Nc1ccc2cccc(Cl)c2n1 [Compound 69, 2-[(8-chloroquinolin-2-yl)amino]pyridin-3-ol]	4 out of 4 donnors
Cc1cc2ccccc2nc1Nc1ccc(OC(F)(F)F)cc1 [Compound 80, 3-methyl-N-[4-(trifluoromethoxy)phenyl]quinolin-2-amine]	7 out of 8 donnors
Cc1cc2ccccc2nc1Nc1cccc(OC(F)(F)F)c1 [Compound 92, 3-methyl-N-[3-(trifluoromethoxy)phenyl]quinolin-2-amine]	3 out of 5 donnors
FC(F)(F)Oc1ccc(Nc2ccc3cccc(Cl)c3n2)cc1Cl [Compound 104, 8-chloro-N-[3-chloro-4-(trifluoromethoxy)phenyl]quinolin-2-amine]	4 out of 4 donnors
FC(F)(F)Oc1cccc(Nc2ccc3cccc(Cl)c3n2)c1 [Compound 87, 8-chloro-N-[3-(trifluoromethoxy)phenyl]quinolin-2-amine]	4 out of 4 donnors
Cc1cc2ccccc2nc1Nc1ccc(C(F)(F)F)cn1 [Compound 74, 3-methyl-N-[5-(trifluoromethyl)pyridin-2-yl]quinolin-2-amine]	4 out of 4 donnors
CCc1cccc(Nc2nc3ccccc3cc2C)n1 [Compound 72, N-(6-ethylpyridin-2-yl)-3-methylquinolin-2-amine]	4 out of 4 donnors
Cc1ccnc(Nc2cnc3ccccc3n2)c1[N+](=O)[O-] [Compound 141, N-(4-methyl-3-nitropyridin-2-yl)quinoxalin-2-amine]	4 out of 4 donnors
FC(F)(F)c1ccnc(Nc2ccc3cccc(Cl)c3n2)c1 [Compound 68, 8-chloro-N-[4-(trifluoromethyl)pyridin-2-yl]quinolin-2-amine]	4 out of 4 donnors
FC(F)(F)Oc1ccc(Nc2ccc3cc(Cl)ccc3n2)cc1 [Compound 96, 6-chloro-N-(4-(trifluoromethoxy)phenyl)quinolin-2-amine]	5 out of 6 donnors
FC(F)(F)c1cccc(Nc2ccc3cccc(Cl)c3n2)n1 [Compound 70, 8-chloro-N-[6-(trifluoromethyl)pyridin-2-yl]quinolin-2-amine]	4 out of 4 donnors
Fc1ccc(Nc2ccc3cc(Cl)ccc3n2)nc1 [Compound 71, 6-chloro-N-(5-fluoropyridin-2-yl)quinolin-2-amine]	4 out of 4 donnors
